Experimental data as given in patent US11981658B2, “Substituted aminopyridine compounds as EGFR inhibitors” (YUHAN CORPORATION, priority 2021, dated 2024).
Like-named read-outs stand apart in the source and are kept apart here.

Key:
[1] = biological target: EGFR Del19/C797S (Homo sapiens, UniProt P00533, C797S/DEL746-750); assay: Biochemical EGFR kinase inhibition assay (Lance Ultra TR-FRET), double mutant del19/C797S
Experimental: (§1) Biochemical EGFR kinase assays were conducted using Lance Ultra time-resolved fluorescence resonance energy transfer (TR-FRET) technology from Perkin-Elmer. Compounds of the invention were initially diluted to 20 mM in 100% DMSO for storage and made into kinase buffer solution to create a compound concentration ranging from 0.003 μM and 10 μM.
(§2) Each kinase reactions were incubated at room temperature for 1 hour and then stopped by the addition of 4 μL of stop solution (10 mM EDTA). The specific Europium-labeled-anti-phosphopeptide antibody (PerkinElmer, AD0069) diluted in LANCE detection buffer was then added to a final concentration of 2 nM. After 60 minutes incubation at room temperature the LANCE signal was measured on an EnVision Multilabel Reader (Perkin-Elmer). Excitation wavelength was set at 320 nm and emission monitored at 615 nm (donor) and 665 nm (acceptor). The IC50 values were determined using GraphPad prism software (GraphPad Software, Inc., San Diego, CA, USA).

[2] = biological target: EGFR Del19/T790M/C797S (Homo sapiens, UniProt P00533, C797S/DEL746-750/T790M); assay: Biochemical EGFR kinase inhibition assay (Lance Ultra TR-FRET), triple mutant del19/T790M/C797S
Experimental: as §1, §2

[3] = biological target: EGFR L858R/C797S (Homo sapiens, UniProt P00533, C797S/L858R); assay: Biochemical EGFR kinase inhibition assay (Lance Ultra TR-FRET), double mutant L858R/C797S
Experimental: as §1, §2

[4] = biological target: EGFR L858R/T790M/C797S (Homo sapiens, UniProt P00533, C797S/L858R/T790M); assay: Biochemical EGFR kinase inhibition assay (Lance Ultra TR-FRET), triple mutant L858R/T790M/C797S
Experimental: as §1, §2

[5] = biological target: EGFR wildtype (WT) (Homo sapiens, UniProt P00533); assay: Biochemical EGFR kinase inhibition assay (Lance Ultra TR-FRET), wildtype
Experimental: as §1, §2

[6] = IC50 Del19/C797S (nM), 100 μM ATP
[7] = Km ATP, read-out: IC50 Del19/C797S (nM) Km ATP
[8] = IC50 Del19/T790M/C797S (nM), 100 μM ATP
[9] = Km ATP, read-out: IC50 Del19/T790M/C797S (nM) Km ATP
[10] = IC50 L858R/C797S (nM), 100 μM ATP
[11] = Km ATP, read-out: IC50 L858R/C797S (nM) Km ATP
[12] = IC50 L858R/T790M/C797S (nM), 100 μM ATP
[13] = Km ATP, read-out: IC50 L858R/T790M/C797S (nM) Km ATP
[14] = Km ATP, read-out: IC50 WT (nM) Km ATP

Sequence of EGFR L858R/T790M/C797S (P00533 25-1210 T790M/C797S/L858R): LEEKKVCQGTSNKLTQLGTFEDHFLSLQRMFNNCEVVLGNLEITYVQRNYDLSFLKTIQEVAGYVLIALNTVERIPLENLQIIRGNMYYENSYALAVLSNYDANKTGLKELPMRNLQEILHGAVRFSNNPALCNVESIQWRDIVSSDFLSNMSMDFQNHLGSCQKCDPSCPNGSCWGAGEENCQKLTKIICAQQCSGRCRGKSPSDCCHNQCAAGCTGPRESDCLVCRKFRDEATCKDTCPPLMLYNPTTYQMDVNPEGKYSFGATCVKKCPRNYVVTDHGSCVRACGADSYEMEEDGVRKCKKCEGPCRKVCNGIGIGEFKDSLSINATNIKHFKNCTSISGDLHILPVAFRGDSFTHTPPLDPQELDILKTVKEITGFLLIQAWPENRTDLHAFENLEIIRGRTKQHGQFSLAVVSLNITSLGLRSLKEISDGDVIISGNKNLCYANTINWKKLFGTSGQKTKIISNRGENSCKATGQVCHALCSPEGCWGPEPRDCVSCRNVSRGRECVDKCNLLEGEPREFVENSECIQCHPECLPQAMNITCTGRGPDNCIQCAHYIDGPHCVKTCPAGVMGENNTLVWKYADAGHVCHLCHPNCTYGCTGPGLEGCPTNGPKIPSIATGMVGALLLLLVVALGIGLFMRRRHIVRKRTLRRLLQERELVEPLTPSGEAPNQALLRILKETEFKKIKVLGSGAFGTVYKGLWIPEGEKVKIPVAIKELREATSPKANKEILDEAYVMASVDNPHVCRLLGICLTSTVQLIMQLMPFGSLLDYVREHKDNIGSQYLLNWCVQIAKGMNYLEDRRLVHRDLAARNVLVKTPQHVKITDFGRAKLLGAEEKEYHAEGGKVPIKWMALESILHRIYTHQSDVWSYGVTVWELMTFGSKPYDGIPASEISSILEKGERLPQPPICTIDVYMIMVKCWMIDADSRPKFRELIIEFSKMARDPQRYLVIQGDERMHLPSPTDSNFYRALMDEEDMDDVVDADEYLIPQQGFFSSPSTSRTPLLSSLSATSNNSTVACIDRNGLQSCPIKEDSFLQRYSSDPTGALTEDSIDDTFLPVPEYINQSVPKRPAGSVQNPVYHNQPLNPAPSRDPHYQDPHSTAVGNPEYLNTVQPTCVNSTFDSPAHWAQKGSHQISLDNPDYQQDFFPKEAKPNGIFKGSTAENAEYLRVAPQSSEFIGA
Sequence of EGFR Del19/T790M/C797S (P00533 with tags, fused parts or gaps DEL746-750/T790M/C797S): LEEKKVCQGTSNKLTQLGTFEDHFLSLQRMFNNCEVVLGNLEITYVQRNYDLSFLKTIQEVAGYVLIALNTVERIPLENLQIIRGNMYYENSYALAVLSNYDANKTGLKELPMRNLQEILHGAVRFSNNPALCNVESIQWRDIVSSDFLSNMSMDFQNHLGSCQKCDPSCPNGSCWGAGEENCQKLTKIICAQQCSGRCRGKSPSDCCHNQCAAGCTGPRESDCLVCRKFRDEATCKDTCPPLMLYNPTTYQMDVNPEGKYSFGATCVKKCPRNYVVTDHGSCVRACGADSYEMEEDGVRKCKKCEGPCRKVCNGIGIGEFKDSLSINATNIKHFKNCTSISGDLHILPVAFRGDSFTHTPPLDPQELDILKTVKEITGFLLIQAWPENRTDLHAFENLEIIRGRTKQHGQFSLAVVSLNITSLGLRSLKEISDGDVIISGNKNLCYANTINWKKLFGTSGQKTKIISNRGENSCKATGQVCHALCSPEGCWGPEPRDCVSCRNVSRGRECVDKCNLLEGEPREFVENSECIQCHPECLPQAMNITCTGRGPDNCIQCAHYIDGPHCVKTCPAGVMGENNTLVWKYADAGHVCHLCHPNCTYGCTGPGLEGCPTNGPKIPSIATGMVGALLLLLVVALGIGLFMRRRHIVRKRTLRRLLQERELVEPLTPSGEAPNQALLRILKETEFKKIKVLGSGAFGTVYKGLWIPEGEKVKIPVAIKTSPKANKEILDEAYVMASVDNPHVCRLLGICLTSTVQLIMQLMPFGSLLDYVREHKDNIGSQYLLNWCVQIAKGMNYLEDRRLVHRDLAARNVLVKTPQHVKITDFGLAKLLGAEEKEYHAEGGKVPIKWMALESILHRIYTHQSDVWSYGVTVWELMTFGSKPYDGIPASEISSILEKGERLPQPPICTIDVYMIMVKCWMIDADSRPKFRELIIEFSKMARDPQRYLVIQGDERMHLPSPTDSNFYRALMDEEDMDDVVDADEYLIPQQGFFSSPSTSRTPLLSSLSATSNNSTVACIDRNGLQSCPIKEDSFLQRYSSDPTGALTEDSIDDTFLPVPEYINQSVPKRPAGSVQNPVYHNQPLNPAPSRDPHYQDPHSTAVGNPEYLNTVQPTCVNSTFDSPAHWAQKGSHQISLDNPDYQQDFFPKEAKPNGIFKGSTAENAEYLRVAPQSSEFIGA
Sequence of EGFR wildtype (WT) (P00533 25-1210): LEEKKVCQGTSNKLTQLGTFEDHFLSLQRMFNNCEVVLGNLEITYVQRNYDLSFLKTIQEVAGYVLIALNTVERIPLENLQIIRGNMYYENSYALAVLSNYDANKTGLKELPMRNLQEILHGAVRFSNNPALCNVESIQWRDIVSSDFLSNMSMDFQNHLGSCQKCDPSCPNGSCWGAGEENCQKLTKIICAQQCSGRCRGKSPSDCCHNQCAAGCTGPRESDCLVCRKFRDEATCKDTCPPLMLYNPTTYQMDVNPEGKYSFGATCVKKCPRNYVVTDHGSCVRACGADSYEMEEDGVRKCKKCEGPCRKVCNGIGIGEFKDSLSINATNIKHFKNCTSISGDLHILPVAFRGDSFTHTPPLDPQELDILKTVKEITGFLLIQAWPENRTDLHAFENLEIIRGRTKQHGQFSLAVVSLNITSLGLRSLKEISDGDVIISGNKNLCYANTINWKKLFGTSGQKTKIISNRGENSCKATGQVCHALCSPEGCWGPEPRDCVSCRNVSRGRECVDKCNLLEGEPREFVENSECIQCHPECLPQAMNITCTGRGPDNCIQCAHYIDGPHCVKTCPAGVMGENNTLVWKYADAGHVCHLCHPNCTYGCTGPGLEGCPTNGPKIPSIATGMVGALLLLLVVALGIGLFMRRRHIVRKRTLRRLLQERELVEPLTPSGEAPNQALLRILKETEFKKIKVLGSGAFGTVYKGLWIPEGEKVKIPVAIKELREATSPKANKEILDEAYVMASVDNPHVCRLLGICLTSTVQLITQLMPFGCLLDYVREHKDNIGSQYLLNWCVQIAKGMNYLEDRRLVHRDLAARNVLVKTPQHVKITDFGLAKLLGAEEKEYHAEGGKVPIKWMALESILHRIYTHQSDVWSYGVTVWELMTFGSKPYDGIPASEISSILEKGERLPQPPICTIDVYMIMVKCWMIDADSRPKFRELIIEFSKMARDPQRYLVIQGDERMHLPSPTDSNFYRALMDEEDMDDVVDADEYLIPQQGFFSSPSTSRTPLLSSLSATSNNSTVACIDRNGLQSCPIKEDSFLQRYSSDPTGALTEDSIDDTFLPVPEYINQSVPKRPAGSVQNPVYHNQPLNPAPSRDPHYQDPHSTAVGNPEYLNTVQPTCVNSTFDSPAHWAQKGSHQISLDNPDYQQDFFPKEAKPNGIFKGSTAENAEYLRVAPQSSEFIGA
Sequence of EGFR Del19/C797S (P00533 with tags, fused parts or gaps DEL746-750/C797S): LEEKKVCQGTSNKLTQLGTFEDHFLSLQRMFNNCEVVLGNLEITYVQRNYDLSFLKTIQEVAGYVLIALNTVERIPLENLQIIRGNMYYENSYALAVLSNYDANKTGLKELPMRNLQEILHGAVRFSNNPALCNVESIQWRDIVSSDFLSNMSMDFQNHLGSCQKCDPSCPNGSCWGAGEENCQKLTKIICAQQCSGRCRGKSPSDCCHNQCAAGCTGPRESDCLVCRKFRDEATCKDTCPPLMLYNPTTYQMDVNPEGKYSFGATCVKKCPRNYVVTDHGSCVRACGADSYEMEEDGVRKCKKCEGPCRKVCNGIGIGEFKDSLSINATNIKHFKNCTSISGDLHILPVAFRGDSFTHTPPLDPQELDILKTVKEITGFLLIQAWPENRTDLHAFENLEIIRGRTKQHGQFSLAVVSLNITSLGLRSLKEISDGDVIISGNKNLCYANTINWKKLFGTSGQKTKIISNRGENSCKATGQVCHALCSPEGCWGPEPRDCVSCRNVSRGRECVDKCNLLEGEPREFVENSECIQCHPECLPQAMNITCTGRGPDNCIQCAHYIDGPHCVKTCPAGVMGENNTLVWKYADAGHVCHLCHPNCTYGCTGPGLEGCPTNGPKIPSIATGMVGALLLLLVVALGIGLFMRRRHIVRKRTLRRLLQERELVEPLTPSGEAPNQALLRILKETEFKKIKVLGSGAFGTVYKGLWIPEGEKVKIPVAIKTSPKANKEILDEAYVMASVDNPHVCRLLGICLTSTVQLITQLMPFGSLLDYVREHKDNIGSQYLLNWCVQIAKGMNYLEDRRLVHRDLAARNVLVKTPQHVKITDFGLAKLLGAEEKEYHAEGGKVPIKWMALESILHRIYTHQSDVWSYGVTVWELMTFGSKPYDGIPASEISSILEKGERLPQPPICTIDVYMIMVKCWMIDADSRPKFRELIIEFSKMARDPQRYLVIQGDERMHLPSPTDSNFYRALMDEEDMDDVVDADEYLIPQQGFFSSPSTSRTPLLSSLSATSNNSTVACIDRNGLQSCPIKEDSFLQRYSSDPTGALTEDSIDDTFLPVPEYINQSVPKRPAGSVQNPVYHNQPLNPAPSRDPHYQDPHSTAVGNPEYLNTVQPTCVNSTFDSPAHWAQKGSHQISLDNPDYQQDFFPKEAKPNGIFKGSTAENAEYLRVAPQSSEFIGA

Structure (SMILES) | IC50 [1, 6] [nM] | IC50 [1, 7] [nM] | IC50 [2, 8] [nM] | IC50 [2, 9] [nM] | IC50 [3, 10] [nM] | IC50 [3, 11] [nM] | IC50 [4, 12] [nM] | IC50 [4, 13] [nM] | IC50 ([5]; IC50 WT (nM), 100 μM ATP) [nM] | IC50 [5, 14] [nM]
Cn1cc(C#Cc2cnc(Nc3ccnc(-c4cnn(S(=O)(=O)C5CC5)c4)n3)cc2N2CCCC(CO)C2)cn1 (stereo not shown) [Example 9, (1-(2-((2-(1-(Cyclopropylsulfonyl)-1H-pyrazol-4-yl)pyrimidin-4-yl)amino)-5-((1-methyl-1H-pyrazol-4-yl)ethynyl)pyridin-4-yl)piperidin-3-yl)methanol] | 3.8 | 2.8 | 1.9 | 0.7 | 27.5 | 2.2 | 1.1 | 0.4 | > 10000 | 52.8
CC(O)C1CCN(c2cc(Nc3ccnc(-c4cnn(S(=O)(=O)C5CC5)c4)n3)ncc2C#Cc2cnn(C)c2)CC1 (stereo not shown) [Example 10, 1-(1-(2-((2-(1-(Cyclopropylsulfonyl)-1H-pyrazol-4-yl)pyrimidin-4-yl)amino)-5-((1-methyl-1H-pyrazol-4-yl)ethynyl)pyridin-4-yl)piperidin-4-yl)ethan-1-ol] | 4.4 | 3 | 0.9 | 1.1 | 12.9 | 2.8 | 0.7 | 0.5 | > 10000 | 31.9
Cn1cc(C#Cc2cnc(Nc3ccnc(-c4cnn(S(=O)(=O)C5CC5)c4)n3)cc2N2CCC(C(C)(C)O)CC2)cn1 [Example 11, 2-(1-(2-((2-(1-(Cyclopropylsulfonyl)-1H-pyrazol-4-yl)pyrimidin-4-yl)amino)-5-((1-methyl-1H-pyrazol-4-yl)ethynyl)pyridin-4-yl)piperidin-4-yl)propan-2-ol] | 9.1 |  | 1.6 |  | 28.5 |  | 1.2 |  | > 10000 | 
Cn1cc(C#Cc2cnc(Nc3ccnc(-c4cnn(S(=O)(=O)C5CC5)c4)n3)cc2N2CCC(C)(CO)CC2)cn1 [Example 12, (1-(2-((2-(1-(Cyclopropylsulfonyl)-1H-pyrazol-4-yl)pyrimidin-4-yl)amino)-5-((1-methyl-1H-pyrazol-4-yl)ethynyl)pyridin-4-yl)-4-methylpiperidin-4-yl)methanol] | 1.9 | 1.1 | 0.8 | 0.7 | 5.1 | 0.7 | 0.6 | 0.3 | 1100 | 6
Cn1cc(C#Cc2cnc(Nc3ccnc(-c4cnn(S(=O)(=O)C5CC5)c4)n3)cc2N2CCC3(CC2)CC(C)(O)C3)cn1 [Example 13, 7-(2-((2-(1-(Cyclopropylsulfonyl)-1H-pyrazol-4-yl)pyrimidin-4-yl)amino)-5-((1-methyl-1H-pyrazol-4-yl)ethynyl)pyridin-4-yl)-2-methyl-7-azaspiro[3.5]nonan-2-ol] | 3.3 |  | 1.4 |  | 9.2 |  | 1.1 |  | 3090 | 
Cn1cc(C#Cc2cnc(Nc3ccnc(-c4cnn(S(=O)(=O)C5CC5)c4)n3)cc2N2CCC(C(C)(C)CO)CC2)cn1 [Example 14, 2-(1-(2-((2-(1-(Cyclopropylsulfonyl)-1H-pyrazol-4-yl)pyrimidin-4-yl)amino)-5-((1-methyl-1H-pyrazol-4-yl)ethynyl)pyridin-4-yl)piperidin-4-yl)-2-methylpropan-1-ol] | 21.7 |  | 3.9 |  | 41 |  | 3 |  | > 10000 | 
COC1CCN(c2cc(Nc3ccnc(-c4cnn(S(=O)(=O)C5CC5)c4)n3)ncc2C#Cc2cnn(C)c2)CC1 [Example 15, 2-(1-(Cyclopropylsulfonyl)-1H-pyrazol-4-yl)-N-(4-(4-methoxypiperidin-1-yl)-5-((1-methyl-1H-pyrazol-4-yl)ethynyl)pyridin-2-yl)pyrimidin-4-amine] | 6.4 |  | 2.6 |  | 25.5 |  | 1.6 |  | 661 | 
O=S(=O)(C1CC1)n1cc(-c2nccc(Nc3cc(N4CCC(CCO)CC4)c(C#Cc4cnn(CCF)c4)cn3)n2)cn1 [Example 17, 2-(1-(2-((2-(1-(Cyclopropylsulfonyl)-1H-pyrazol-4-yl)pyrimidin-4-yl)amino)-5-((1-(2-fluoroethyl)-1H-pyrazol-4-yl)ethynyl)pyridin-4-yl)piperidin-4-yl)ethan-1-ol] | 10.3 |  | 2 |  | 53.3 |  | 6.1 |  | > 10000 | 
